Activity calls are given as the source filed them.
Assays:
[1] = molecular target: Metabotropic glutamate receptor 5 (Rattus norvegicus, UniProt P31424); test: Identification of a glycine sulfonamide based non-MPEP site positive allosteric potentiator (PAM) of mGlu5 (calcium_assay).; type: functional
[2] = molecular target: Luciferin 4-monooxygenase (Photinus pyralis, UniProt P08659); test: Counter Screen for Luciferase-based Assay Positives. [Related pubchem assays: 620, 618, 411 ]
[3] = growth suppression of PTEN-null colon cells, dose response, cell-based, HCT116 PTEN knockout (AID 1047); type: functional;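 also: HCT116 colon tumor cells with PTEN knocked out; cells exposed to compound for 60 hours before readout; potency for loss of cell viability measured by luminescence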
[4] = test system: HT-1080; test: cytotoxicity in HT1080 fibrosarcoma cells, cell-based, fluorescence readout (AID 620); type: functional; details: Homo sapiens
[5] = growth suppression of beta-catenin-knockout colon cells, dose response, cell-based, HCT116, human colon tumor (AID 1045); type: functional;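 also: HCT116 colon tumor cells with beta catenin knocked out; cells exposed to compound for 60 hours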
[6] = molecular target: Oxysterols receptor LXR-beta (Homo sapiens, UniProt P55055); type: functional, cell-based;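 also: agonist activity at LXR measured by a cell-based luminescence readout across a dose range, run as a counterscreen for daf-12 agonists; HEK293 cells with Gal4-LXR fusion and GAL4-driven luciferase reporter; potency for activation of Gal4-LXR reporter so compounds are agonists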
[7] = YAP1 pathway inhibition via CTGF transcript levels, dose response, cell-based, DLD1 colon cancer, RT-qPCR, cherry-pick (AID 1053122); type: functional; details: Cancer cell lines
[8] = cytotoxicity in HEK-293T cells, dose response, cytotoxicity control for BCR NF-kB inhibitor project, luminescence, B-cell screen hits (AID 489021); type: functional, cell-based;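 also: HEK-293T cells carrying an NF-kB luciferase reporter; cells exposed to compound for about 14 hours before viability readout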
[9] = molecular target: 26S proteasome non-ATPase regulatory subunit 14 (Homo sapiens, UniProt O00487); test: inhibition of proteasome subunit RPN11 – biochemical, fluorescence polarization, uHTS hits, confirmation (AID 602368); type: functional
[10] = molecular target: 72 kDa type IV collagenase (Homo sapiens, UniProt P08253); test: Dose Response validation of uHTS RPN11 inhibitor hits using a MMP-2 Fluorescence assay.; type: functional
[11] = molecular target: Prothrombin (Bos taurus, UniProt P00735); test: thrombin inhibition, dose response, biochemical, fluorescence polarization, uHTS hits (AID 602369); type: functional
[12] = molecular target: Albumin (Bos taurus, UniProt P02769); test: Counterscreen for inhibitors of T-cell receptor (TCR)-CD3 interaction: Fluorescence-based biochemical high throughput dose response assay to identify inhibitors of T-cell receptor (TCR)-CD3 interaction using a TAMRA-labeled BSA probe.; type: functional
[13] = molecular target: Broad substrate specificity ATP-binding cassette transporter ABCG2 (Homo sapiens, UniProt Q9UNQ0); test: ABCG2 efflux pump inhibitors, dose response, Ig-MXP3 cells, flow cytometry (AID 1690); type: functional
[14] = molecular target: Protein Wnt-3a (Mus musculus, UniProt P27467); test: SAR analysis of small molecule antagonists of Gli-SUFU in a Wnt3a luminescent reporter assay.; type: functional
[15] = molecular target: Endoplasmic reticulum aminopeptidase 1 (Homo sapiens, UniProt Q9NZ08); test: ERAP1 aminopeptidase inhibitors, dose response, biochemical, cherry-pick, set 2, plate reader (AID 743314)
[16] = HepG2 cell cytotoxicity, dose response, cytotoxicity control, ATP luminescence, cherry-pick, activator set 2 (AID 1053143); type: functional, cell-based
[17] = molecular target: Mu-type opioid receptor (Homo sapiens, UniProt P35372); type: functional, cell-based;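 also: U2OS cells with beta-arrestin recruitment to OPRM1 by beta-gal complementation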
[18] = molecular target: 5-hydroxytryptamine receptor 2A (Mus musculus, UniProt P35363); type: functional, cell-based;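 also: CHO-K1 cells with tagged receptor and beta-arrestin; agonist potency measured as compound-induced activation of the receptor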
[19] = molecular target: T1, Methionyl-tRNA synthetase, putative (Trypanosoma brucei brucei, UniProt Q38C91); type: functional, Trypanosoma brucei brucei strain 927/4 GUTat10.1
[20] = Counterscreen for inhibitors of Trypanosoma brucei methionyl tRNA synthetase (MetRS): Luminescence-based cell-based high throughput dose response assay to identify compounds that are cytotoxic to Jurkat human T lymphocyte cells.; type: functional
[21] = molecular target: T1, Methionyl-tRNA synthetase, putative; type: functional, Trypanosoma brucei brucei strain 927/4 GUTat10.1; remark: listed apart in the source
[22] = Late stage counterscreen for inhibitors of Trypanosoma brucei methionyl tRNA synthetase (MetRS): Luminescence-based cell-based high throughput dose response assay to identify compounds that are cytotoxic to Jurkat human T lymphocyte cells.; type: functional
[23] = HeLa cell cytotoxicity, dose response, cytotoxicity control, 24 h, plate reader, powder samples, set 3 (AID 651864); type: functional, cell-based
[24] = HEK293T cell cytotoxicity, dose response, cytotoxicity control for HIV Vif inhibitor project, cherry-picks (AID 652208); type: functional, cell-based

T1 sequence (Q38C91 whole entry): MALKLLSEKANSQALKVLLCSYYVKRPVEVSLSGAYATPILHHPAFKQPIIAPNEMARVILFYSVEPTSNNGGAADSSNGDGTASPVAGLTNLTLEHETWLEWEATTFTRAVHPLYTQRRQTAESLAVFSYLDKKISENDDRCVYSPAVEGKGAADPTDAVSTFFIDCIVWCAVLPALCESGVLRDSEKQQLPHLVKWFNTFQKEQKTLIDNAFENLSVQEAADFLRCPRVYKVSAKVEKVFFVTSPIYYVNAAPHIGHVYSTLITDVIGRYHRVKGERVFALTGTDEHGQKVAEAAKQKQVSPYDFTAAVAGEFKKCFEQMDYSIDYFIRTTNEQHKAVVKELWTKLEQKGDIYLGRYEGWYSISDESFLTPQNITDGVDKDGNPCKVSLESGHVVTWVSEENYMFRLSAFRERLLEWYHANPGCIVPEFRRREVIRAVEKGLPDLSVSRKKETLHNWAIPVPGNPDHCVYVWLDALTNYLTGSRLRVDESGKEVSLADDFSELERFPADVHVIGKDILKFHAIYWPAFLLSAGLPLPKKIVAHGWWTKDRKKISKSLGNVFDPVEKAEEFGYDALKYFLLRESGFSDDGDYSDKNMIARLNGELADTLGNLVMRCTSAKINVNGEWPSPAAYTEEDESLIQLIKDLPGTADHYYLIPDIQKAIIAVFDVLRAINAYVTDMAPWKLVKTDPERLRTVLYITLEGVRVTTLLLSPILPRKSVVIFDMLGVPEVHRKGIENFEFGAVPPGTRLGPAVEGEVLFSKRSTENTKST
Sequence of Albumin (P02769 whole entry): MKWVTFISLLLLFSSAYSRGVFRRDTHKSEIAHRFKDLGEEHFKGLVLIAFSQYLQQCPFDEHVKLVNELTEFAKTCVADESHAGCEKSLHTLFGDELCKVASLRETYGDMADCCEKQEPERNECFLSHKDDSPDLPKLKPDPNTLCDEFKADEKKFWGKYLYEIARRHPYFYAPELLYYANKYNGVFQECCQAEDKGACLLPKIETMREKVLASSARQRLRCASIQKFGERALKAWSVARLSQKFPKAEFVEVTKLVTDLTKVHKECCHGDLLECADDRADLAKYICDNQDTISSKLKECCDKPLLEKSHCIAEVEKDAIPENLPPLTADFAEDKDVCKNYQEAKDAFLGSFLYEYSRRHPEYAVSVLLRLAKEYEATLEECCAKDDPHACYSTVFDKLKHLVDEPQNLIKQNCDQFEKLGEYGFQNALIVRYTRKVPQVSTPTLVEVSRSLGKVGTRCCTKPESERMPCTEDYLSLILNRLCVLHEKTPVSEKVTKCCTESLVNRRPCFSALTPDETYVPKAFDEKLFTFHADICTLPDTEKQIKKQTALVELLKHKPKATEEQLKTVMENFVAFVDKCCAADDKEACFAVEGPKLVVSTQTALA
Sequence of Endoplasmic reticulum aminopeptidase 1 (Q9NZ08 whole entry): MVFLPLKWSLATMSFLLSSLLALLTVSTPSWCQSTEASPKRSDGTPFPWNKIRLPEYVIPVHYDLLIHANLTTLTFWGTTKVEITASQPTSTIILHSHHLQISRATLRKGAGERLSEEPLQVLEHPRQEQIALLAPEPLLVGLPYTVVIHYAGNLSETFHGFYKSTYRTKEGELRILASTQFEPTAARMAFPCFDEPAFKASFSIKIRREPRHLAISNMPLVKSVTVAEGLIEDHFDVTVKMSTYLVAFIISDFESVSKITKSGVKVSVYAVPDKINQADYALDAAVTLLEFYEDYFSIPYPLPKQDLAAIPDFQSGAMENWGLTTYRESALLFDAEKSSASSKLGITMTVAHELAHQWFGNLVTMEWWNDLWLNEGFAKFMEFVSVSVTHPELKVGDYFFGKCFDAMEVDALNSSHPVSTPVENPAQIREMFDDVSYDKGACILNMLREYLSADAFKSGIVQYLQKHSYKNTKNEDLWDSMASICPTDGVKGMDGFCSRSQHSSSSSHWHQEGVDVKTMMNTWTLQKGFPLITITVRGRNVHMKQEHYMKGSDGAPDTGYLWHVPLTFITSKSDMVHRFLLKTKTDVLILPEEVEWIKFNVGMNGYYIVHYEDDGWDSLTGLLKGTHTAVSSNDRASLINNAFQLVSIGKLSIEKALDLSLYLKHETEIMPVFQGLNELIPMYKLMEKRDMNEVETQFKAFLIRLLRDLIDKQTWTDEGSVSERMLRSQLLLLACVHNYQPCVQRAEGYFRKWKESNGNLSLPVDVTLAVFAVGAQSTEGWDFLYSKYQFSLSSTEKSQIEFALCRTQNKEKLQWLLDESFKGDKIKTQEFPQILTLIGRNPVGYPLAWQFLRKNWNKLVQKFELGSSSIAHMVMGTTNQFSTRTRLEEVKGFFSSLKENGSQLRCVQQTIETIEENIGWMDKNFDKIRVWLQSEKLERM
Sequence of Luciferin 4-monooxygenase (P08659 whole entry): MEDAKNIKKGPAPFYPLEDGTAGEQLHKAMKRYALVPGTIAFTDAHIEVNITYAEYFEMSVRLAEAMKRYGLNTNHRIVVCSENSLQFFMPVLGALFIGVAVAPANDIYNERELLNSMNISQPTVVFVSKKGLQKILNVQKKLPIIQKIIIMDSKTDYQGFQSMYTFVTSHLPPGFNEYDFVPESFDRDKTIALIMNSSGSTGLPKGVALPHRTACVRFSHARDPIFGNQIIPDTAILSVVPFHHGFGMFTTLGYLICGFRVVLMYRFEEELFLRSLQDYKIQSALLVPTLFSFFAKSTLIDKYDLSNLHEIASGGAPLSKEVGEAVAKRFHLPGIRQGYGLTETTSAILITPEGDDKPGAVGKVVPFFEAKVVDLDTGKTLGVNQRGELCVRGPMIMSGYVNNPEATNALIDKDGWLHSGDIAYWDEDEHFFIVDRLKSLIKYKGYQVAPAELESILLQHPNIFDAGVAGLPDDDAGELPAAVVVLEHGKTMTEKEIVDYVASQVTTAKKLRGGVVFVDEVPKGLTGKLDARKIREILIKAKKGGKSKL
Sequence of Mu-type opioid receptor (P35372 whole entry): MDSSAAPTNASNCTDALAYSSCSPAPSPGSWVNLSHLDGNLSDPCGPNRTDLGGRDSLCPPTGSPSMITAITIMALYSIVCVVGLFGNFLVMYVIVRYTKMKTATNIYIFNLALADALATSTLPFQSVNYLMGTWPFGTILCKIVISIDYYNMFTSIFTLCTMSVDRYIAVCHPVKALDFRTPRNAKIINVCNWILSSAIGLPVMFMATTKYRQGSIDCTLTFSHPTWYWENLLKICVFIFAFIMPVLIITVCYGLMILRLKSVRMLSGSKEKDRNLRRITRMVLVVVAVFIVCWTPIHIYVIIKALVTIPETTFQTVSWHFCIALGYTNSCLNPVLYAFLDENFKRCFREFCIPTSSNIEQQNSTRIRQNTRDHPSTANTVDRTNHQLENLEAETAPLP
Sequence of Broad substrate specificity ATP-binding cassette transporter ABCG2 (Q9UNQ0 whole entry): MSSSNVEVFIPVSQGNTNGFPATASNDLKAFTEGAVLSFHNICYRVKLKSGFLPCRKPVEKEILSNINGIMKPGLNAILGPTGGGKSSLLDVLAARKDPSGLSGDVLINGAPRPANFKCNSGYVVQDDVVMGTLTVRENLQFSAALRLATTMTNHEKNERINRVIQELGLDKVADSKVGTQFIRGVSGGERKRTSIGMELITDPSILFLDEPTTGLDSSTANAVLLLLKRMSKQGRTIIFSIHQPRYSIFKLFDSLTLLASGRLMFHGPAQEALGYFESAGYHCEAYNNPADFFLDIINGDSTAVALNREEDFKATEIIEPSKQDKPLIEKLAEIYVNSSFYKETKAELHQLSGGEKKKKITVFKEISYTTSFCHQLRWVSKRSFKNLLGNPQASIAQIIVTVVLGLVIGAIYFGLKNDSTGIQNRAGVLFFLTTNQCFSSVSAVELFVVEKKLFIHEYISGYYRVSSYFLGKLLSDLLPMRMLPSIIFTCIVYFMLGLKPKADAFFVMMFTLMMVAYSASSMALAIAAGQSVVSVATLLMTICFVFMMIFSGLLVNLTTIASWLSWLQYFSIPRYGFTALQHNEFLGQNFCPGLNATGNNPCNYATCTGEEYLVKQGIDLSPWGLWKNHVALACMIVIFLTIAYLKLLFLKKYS
Sequence of Oxysterols receptor LXR-beta (P55055 whole entry, the tested form may be a part): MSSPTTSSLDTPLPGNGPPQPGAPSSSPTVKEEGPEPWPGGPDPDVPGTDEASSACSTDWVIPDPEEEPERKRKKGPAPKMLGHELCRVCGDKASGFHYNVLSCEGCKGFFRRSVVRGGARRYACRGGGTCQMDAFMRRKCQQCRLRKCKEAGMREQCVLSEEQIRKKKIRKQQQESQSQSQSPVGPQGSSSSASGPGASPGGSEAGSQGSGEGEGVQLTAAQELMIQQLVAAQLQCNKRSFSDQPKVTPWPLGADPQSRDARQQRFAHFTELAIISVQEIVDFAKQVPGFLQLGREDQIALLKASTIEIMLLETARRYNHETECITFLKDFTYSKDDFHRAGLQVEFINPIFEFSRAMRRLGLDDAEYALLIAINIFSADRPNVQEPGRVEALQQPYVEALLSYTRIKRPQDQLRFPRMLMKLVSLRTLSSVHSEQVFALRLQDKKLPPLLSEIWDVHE
Sequence of 26S proteasome non-ATPase regulatory subunit 14 (O00487 whole entry): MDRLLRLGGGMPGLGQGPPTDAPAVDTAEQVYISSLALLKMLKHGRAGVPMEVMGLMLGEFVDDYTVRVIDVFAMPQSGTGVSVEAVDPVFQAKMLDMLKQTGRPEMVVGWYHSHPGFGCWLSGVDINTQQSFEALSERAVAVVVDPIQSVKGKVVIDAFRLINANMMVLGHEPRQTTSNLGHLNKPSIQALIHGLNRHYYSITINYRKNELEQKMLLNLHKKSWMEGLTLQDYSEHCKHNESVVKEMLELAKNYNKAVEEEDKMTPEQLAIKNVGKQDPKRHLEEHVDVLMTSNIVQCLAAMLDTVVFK

CC(C(=O)Nc1cc(Cl)ccn1)N(c1ccccc1Cl)S(C)(=O)=O (centres undefined)
EC50 [1]: 10 µM (inconclusive)

Clc1cccc(-c2nnc(-c3ccccc3)o2)c1
EC50 [2]: 50.7 µM (active) | EC50 [3]: 49 µM (active) | EC50 [4]: > 50 µM (not active) | EC50 [5]: 26.3 µM (active) | EC50 [6]: > 67.5 µM (inactive)

O=C(Cc1ccncc1)N1CCCCN2[C@@H](CO)[C@H](c3ccc(C#Cc4ccccc4F)cc3)[C@@H]2C1
AC50 [7]: 13.1 µM (active)

Cc1ccc(/C=C2\SC(=S)N(CCCC(=O)NNC(=O)c3ccccc3O)C2=O)cc1
IC50 [8]: > 80 µM (inactive) | IC50 [9]: 28.3 µM (active) | IC50 [10]: > 100 µM (inactive) | IC50 [11]: 32.8 µM (active) | IC50 [12]: > 94.1 µM (inactive)

COC(=O)c1ccc(C(C(=O)NC2CCCCC2)N(Cc2ccccc2)C(=O)Cc2cccs2)cc1 (centres undefined)
EC50 [13]: 4.6 µM (active)

O=C(Nc1cc(N2CCCCC2)ncn1)c1ccc(Br)o1
IC50 [14]: > 21.8 µM (inactive)

Cc1cc(=O)oc2c(CN3CCCCC3)c(O)ccc12
AC50 [15]: 5.18 µM (active)

c1csc(-c2ccc(N3CCOCC3)nn2)c1
AC50 [16]: 26 µM (active)

CCOC(=O)N1CCC(N2CCCC(C(=O)c3ccccc3OC)C2)CC1 (centres undefined)
EC50 [17]: 92.5 µM (inactive) | EC50 [18]: 41.2 µM (inactive)

CC(=O)c1c[nH]c(C(=O)NCc2cccc(C(F)(F)F)c2)c1
IC50 [19]: 2.07 µM (active) | IC50 [20]: 83.3 µM (inactive) | IC50 [21]: 1.16 µM (active) | IC50 [22]: > 83.3 µM (inactive)

CCn1nccc1/N=C/c1ccc(N2CCCC2)cc1
AC50 [23]: > 160 µM (inactive)

NC(c1csc(Nc2ccc(C(=O)c3ccccc3)cc2)n1)C1CCCCC1 (centres undefined)
AC50 [24]: 26.6 µM (active)

Reference: ChEMBL document CHEMBL1201862, “PubChem BioAssay data set” (2004)
